What was measured:
Format in all cases: physicochemical
[1] = Glass transition temperature of the compound
[2] = Measurement of solubility in m-xylene; parameters: key: +: The compound dissolved.; −: The compound remained undissolved, giving a suspension, or separated out as crystals in 12 hours
Description: <Measurement of Solubility in m-Xylene>
The compound I synthesized in [Synthesis of Compound I] above and the comparative compounds X-A and X-B represented by the following structural formulae were examined for solubility in m-xylene.

[3] = Dissolution of the compound in the composition for luminescent-layer formation / production of element; conditions: same procedure as Example 2, cyclohexylbenzene as solvent; production of an element was impossible
Description: Next, a composition for luminescent-layer formation which included compound C3 represented by the following formula and the compound II obtained in Synthesis Example as charge-transporting compounds, phosphorescent metal complex D2, and cyclohexylbenzene as a solvent was prepared. The concentrations of the compound C3, the compound II, and the phosphorescent metal complex D2 in the composition were 1.25% by mass, 3.75% by mass, and 0.7% by mass, respectively.
The same procedure as in Example 2 was conducted, except that the compound X-C was used in place of the compound II.

| Glass transition temperature [1] | Solubility in m-xylene, Concentration 1.0 mass % [2] | Solubility in m-xylene, Concentration 5.0 mass % [2] | Solubility in m-xylene, Concentration 10 mass % [2] | behaviour of the compound after dissolution in the composition for luminescent-layer formation [3] | SMILES |
| --- | --- | --- | --- | --- | --- |
| 127 °C | + | + | + |  | c1ccc(-c2cccc(-c3ccc(N(c4ccc(-c5cccc(-c6cccc(-n7c8ccccc8c8ccccc87)c6)c5)cc4)c4ccc(-c5cccc(-n6c7ccccc7c7ccccc76)c5)cc4)cc3)c2)cc1 [Compound I] |
|  |  |  |  | crystallized after dissolved | c1ccc(-c2ccc(-c3ccc(N(c4ccc(-c5cccc(-c6cccc7ccccc67)c5)cc4)c4ccc(-c5cccc(-n6c7ccccc7c7ccccc76)c5)cc4)cc3)cc2)cc1 [Compound X-C] |
| 159 °C | + | − | − |  | c1cc(-c2ccc(N(c3ccc(-c4cccc(-n5c6ccccc6c6ccccc65)c4)cc3)c3ccc(-c4cccc(-n5c6ccccc6c6ccccc65)c4)cc3)cc2)cc(-n2c3ccccc3c3ccccc32)c1 [X-A] |
| 120 °C | − | − | − |  | c1ccc(-c2cccc(-c3ccc(N(c4ccc(-c5cccc(-n6c7ccccc7c7ccccc76)c5)cc4)c4ccc(-c5cccc(-n6c7ccccc7c7ccccc76)c5)cc4)cc3)c2)cc1 [X-B] |
